From PMC4884932, “Selective brain penetrable Nurr1 transactivator for treating Parkinson's disease” (Oncotarget, 2016)

What was measured:
RXRα = molecular target: T1, RXRα (Homo sapiens, UniProt P19793); assay: Receptor transactivation assay, RXRα (CV-1 cells, rCRBPII/RXRE-tk-Luc reporter); format: cell-based; settings: 20h
T1 sequence (P19793 1-462): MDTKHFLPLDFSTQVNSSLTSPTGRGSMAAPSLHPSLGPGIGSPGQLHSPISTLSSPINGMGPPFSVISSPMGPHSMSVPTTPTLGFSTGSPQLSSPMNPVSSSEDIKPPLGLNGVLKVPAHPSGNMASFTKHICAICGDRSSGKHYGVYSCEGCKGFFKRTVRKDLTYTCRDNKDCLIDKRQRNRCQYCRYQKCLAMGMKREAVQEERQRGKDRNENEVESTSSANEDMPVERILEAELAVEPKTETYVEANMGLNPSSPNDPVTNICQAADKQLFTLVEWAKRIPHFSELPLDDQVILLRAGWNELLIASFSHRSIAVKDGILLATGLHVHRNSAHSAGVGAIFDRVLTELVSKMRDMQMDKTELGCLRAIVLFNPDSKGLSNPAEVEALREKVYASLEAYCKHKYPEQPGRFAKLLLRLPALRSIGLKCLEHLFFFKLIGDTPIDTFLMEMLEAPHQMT
Description: (§1) For RXR: CV-1 cells were transfected with rCRBPII/RXRE-tk-Luc reporter gene and an expression vector for RXRα, β, or γ. For RAR: CV-1 cells were transfected with ERE-tk-Luc reporter gene and an expression vector for the appropriate ER-RARα, β, or γ. ER-RARs are fusion proteins, composed of the estrogen receptor (ER) DNA binding domain fused to the ligand binding domain of RARs. This system eliminates interference by the low level of endogenous RAR activity in CV1 cells as the readout comes only from the transfected ER-RAR. For PPARγ: CV-1 cells were transfected with 3x(rAOX/DR1)-tk-Luc reporter gene and an expression vector for PPARγ; for FXR: CV-1 cells were transfected with 3x(IBABP/IR1)-tk-Luc reporter gene and vectors for FXR and RXRα; for LXR: CV-1 cells were transfected with 3x(PLTP/LXRE)-tk-Luc reporter gene with vectors for LXRα or LXRβ. For Nurr1: COS7 cells were transfected with 3xNBRE-tk-luc reporter gene and full length Nurr1 with or without full-length RXRα plasmid. […] Luciferase data were normalized to co-transfected β-gal activity. Luciferase activity is expressed as percent of maximal activity obtained using specific agonists 9-cis-retinoic acid (RXR), retinoic acid (RAR), rosiglitazone (PPARγ), GW4064 (FXR), T0901317 (LXR).

RXRβ = RXRβ (Homo sapiens, UniProt P28702); settings: CV-1 cells, 20h
Chain of RXRβ (P28702 whole entry): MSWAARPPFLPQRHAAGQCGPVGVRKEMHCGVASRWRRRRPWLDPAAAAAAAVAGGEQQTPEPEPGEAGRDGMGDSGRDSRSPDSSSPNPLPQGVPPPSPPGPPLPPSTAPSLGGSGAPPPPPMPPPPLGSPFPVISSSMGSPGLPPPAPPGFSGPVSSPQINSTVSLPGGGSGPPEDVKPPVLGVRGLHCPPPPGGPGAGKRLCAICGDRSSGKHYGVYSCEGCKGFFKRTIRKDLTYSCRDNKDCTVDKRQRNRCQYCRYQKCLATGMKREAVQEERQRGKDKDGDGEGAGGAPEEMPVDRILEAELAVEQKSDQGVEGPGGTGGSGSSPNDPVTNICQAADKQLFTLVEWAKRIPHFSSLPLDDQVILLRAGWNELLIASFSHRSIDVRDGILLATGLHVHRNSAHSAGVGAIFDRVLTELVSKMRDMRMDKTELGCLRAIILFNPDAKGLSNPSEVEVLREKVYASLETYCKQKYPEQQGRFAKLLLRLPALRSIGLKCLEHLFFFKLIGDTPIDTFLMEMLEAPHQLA
Description: as §1

PPARγ = PPARγ (Homo sapiens, UniProt P37231); settings: at physiological concentrations
Chain of PPARγ (P37231 whole entry, species assumed, one chain of several): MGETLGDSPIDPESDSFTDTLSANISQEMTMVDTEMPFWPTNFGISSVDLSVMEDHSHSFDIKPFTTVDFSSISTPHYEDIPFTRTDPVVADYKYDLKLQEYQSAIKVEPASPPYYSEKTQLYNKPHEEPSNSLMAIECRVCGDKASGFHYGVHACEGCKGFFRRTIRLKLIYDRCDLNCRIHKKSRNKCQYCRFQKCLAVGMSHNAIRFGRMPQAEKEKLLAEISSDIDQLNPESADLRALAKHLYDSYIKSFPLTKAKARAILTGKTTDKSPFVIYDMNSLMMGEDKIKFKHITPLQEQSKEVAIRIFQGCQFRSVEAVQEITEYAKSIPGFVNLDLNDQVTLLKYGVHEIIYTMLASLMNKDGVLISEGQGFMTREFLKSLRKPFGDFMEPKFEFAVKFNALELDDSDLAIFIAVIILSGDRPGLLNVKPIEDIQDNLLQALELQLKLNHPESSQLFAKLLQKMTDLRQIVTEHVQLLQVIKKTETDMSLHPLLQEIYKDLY
Description: as §1

6-OHDA lesioned rats = assay: Dopamine and metabolites in the striatum by HPLC, 6-OHDA lesioned rats; format: in vivo, rat; settings: 10mg/kg/day gavage for three weeks, p < 0.01
Procedure: All surgical procedures were performed under general anesthesia with ketamine/xylazine. 2μl 6-OHDA (20 mg/ml in 0.02% ascorbic acid) was stereotaxically injected into the right striatum of male SD rats. Lesion coordinates were set according to bregma and dura in mm: ML-3.7; AP-1.0; DV-5.5. The injection rate was 2μl/5 min and the injecting needle was left for 2 minutes after injection to avoid back flow. Apomorphine-induced rotations (see below) were assessed three days post-lesion and rats with ≥ 30 full contralateral rotation/30 minutes were included in the study.
Rats were randomly grouped into vehicle control group (n = 11) and drug treatment group (n = 10). […] The control group received DMSO/corn oil (vehicle). […]
The left and right striatum were isolated and homogenized with artificial cerebrospinal fluid and centrifuged at x10,000 g for 15 minutes. Protein content of the supernatant was measured by Bradford assay (Bio-Rad). Dopamine, HVA and DOPAC were measured using an isocratic HPLC system with electrochemical detection, consisting of a pump (ESA model 582 [ESA Chelmsford, MA]), automatic injector (ESA model 542 Autosampler), and a Coulochem III detector (ESA) in conjunction with a guard cell (ESA model 5020) and an analytical cell (ESA model 5014B). […] Data were collected and analyzed using the EZStart software (Agilent Technologies, Santa Clara, CA). […]

[1] = test system: tyrosine hydroxylase (TH)-positive DA neurons; assay: DA neuron survival in primary ventral midbrain (VMB) culture; format: cell-based, mouse; settings: primary VMB neurons, dose-dependent
Procedure: Ventral midbrain (VMB) from E13.5-14.5 C57BL/6 mouse embryos were dissected, triturated and plated on poly-D-lysine coated 12 well plates or glass coverslips with the serum-free chemically-defined Neurobasal medium, supplemented with 2% B27, 0.5mM L-glutamine, 50I.U./ml penicillin and 50μg/ml streptomycin (Gibco-BRL). […] For each time point, cells were washed once with phosphate buffered saline and fixed with 4% paraformaldehyde for TH immunofluorescent staining. For cell counting, 10 frames were randomly captured from each well using a Leica fluorescent microscope and a minimum of four replicates for each dose and each time point were analyzed for each experiment.

concentration that fully activates RXRα (RXRα): 1 nM
concentration that partially activates RXRα (RXRα): 0.1 nM
concentration that fully activates RXRβ (RXRβ): 1 nM
concentration that partially activates RXRβ (RXRβ): 0.1 nM
activation of RXR heterodimer of PPARγ (PPARγ): does not activate
SMILES: CC(/C=C/[C@@H]1C[C@]1(C)c1ccc2c(c1)C(C)(C)CCC2(C)C)=C\C(=O)O [IRX4204]
striatal dopamine loss in the lesioned side (6-OHDA lesioned rats): much greater in the vehicle-treated group relative to the IRX4204 group
survival of TH-positive DA neurons [1]: increased survival
